{"source": "ChEMBL document CHEMBL6103654", "about": "“Design, Biological Characterization, and Discovery of Capromorelin Derivatives as Oral Growth Hormone Secretagogue Receptor Type 1a Agonist for the Treatment of Growth Hormone Deficiency” (J Med Chem, 2025)", "key": {"Rattus norvegicus [1]": {"system": "Rattus norvegicus", "assay": "Induction of growth hormone level in adult Sprague-Dawley rat blood at 10 mg/kg, po administered as single dose measured after 10 mins by ELISA method (reference value: 13.7+/-7.2 ng/mL)", "type": "functional"}, "Rattus norvegicus [2]": {"system": "Rattus norvegicus", "assay": "Induction of growth hormone level in Juvenile Sprague-Dawley rat blood at 10 mg/kg, po administered as single dose measured after 40 mins by ELISA method (reference value: 40.1+/-11.0 ng/mL)", "type": "functional"}, "Rattus norvegicus [3]": {"system": "Rattus norvegicus", "assay": "Induction of growth hormone level in Juvenile Sprague-Dawley rat blood at 10 mg/kg, po administered as single dose measured after 4 hrs by ELISA method (reference value: 32.5+/-4.5 ng/mL)", "type": "functional"}, "Rattus norvegicus [4]": {"system": "Rattus norvegicus", "assay": "Induction of growth hormone level in adult Sprague-Dawley rat blood by measuring AUC(0 to 40 mins) at 10 mg/kg, po administered as single dose by ELISA method (reference value: 7.0+/-1.7 ng/mL)", "type": "functional, organism-based"}, "Rattus norvegicus [5]": {"system": "Rattus norvegicus", "assay": "Induction of growth hormone level in Juvenile Sprague-Dawley rat blood at 10 mg/kg, po administered as single dose measured after 2 hrs by ELISA method (reference value: 26.5+/-7.3 ng/mL)", "type": "functional"}, "Rattus norvegicus [6]": {"system": "Rattus norvegicus", "assay": "Induction of growth hormone level in Juvenile Sprague-Dawley rat blood by measuring AUC(0 to 40 mins) at 10 mg/kg, po administered as single dose by ELISA method (reference value: 20.2+/-4.3 ng/mL)", "type": "functional, organism-based"}, "Rattus norvegicus [7]": {"system": "Rattus norvegicus", "assay": "Induction of growth hormone level in Juvenile Sprague-Dawley rat blood at 10 mg/kg, po administered as single dose measured after 1 hr by ELISA method (reference value: 45.2+/-12.5 ng/mL)", "type": "functional"}, "Rattus norvegicus [8]": {"system": "Rattus norvegicus", "assay": "Induction of growth hormone level in adult Sprague-Dawley rat blood at 10 mg/kg, po administered as single dose measured after 40 mins by ELISA method (reference value: 14.4+/-6.9 ng/mL)", "type": "functional"}, "Rattus norvegicus [9]": {"system": "Rattus norvegicus", "assay": "Induction of growth hormone level in Juvenile Sprague-Dawley rat blood at 10 mg/kg, po administered as single dose measured immediately by ELISA method (reference value: 28.5+/-8.7 ng/mL)", "type": "functional"}, "Rattus norvegicus [10]": {"system": "Rattus norvegicus", "assay": "Induction of growth hormone level in Juvenile Sprague-Dawley rat blood at 10 mg/kg, po administered as single dose measured after 10 mins by ELISA method (reference value: 23.2+/-5.6 ng/mL)", "type": "functional"}, "Rattus norvegicus [11]": {"system": "Rattus norvegicus", "assay": "Induction of growth hormone level in adult Sprague-Dawley rat blood at 10 mg/kg, po administered as single dose measured after 20 mins by ELISA method (reference value: 4.9+/-1.1 ng/mL)", "type": "functional"}, "Rattus norvegicus [12]": {"system": "Rattus norvegicus", "assay": "Induction of growth hormone level in adult Sprague-Dawley rat blood at 10 mg/kg, po administered as single dose measured immediately by ELISA method (reference value: 12.6+/-4.4 ng/mL)", "type": "functional"}, "Rattus norvegicus [13]": {"system": "Rattus norvegicus", "assay": "Induction of growth hormone level in Juvenile Sprague-Dawley rat blood at 10 mg/kg, po administered as single dose measured after 20 mins by ELISA method (reference value: 29.1+/-8.6 ng/mL)", "type": "functional"}}}
{"molecule": "CC(C)(N)C(=O)N[C@H](COCc1ccccc1)C(=O)N1CCC2(CC1)CN(S(C)(=O)=O)c1ccccc12", "note": "[IBUTAMOREN]", "values": [{"measurement": "Activity", "setting": "Rattus norvegicus [1]", "value": 133.9, "unit": "ng/mL"}, {"measurement": "Activity", "setting": "Rattus norvegicus [2]", "value": 76.3, "unit": "ng/mL"}, {"measurement": "Activity", "setting": "Rattus norvegicus [3]", "value": 61.3, "unit": "ng/mL"}, {"measurement": "AUC", "setting": "Rattus norvegicus [4]", "value": 45.6, "unit": "ng·h/mL"}, {"measurement": "Activity", "setting": "Rattus norvegicus [5]", "value": 52.4, "unit": "ng/mL"}, {"measurement": "AUC", "setting": "Rattus norvegicus [6]", "value": 123, "unit": "ng·h/mL"}, {"measurement": "Activity", "setting": "Rattus norvegicus [7]", "value": 76.2, "unit": "ng/mL"}, {"measurement": "Activity", "setting": "Rattus norvegicus [8]", "value": 25, "unit": "ng/mL"}, {"measurement": "Activity", "setting": "Rattus norvegicus [9]", "value": 58.1, "unit": "ng/mL"}, {"measurement": "Activity", "setting": "Rattus norvegicus [10]", "value": 290.9, "unit": "ng/mL"}, {"measurement": "Activity", "setting": "Rattus norvegicus [11]", "value": 71.3, "unit": "ng/mL"}, {"measurement": "Activity", "setting": "Rattus norvegicus [12]", "value": 15.4, "unit": "ng/mL"}, {"measurement": "Activity", "setting": "Rattus norvegicus [13]", "value": 227.8, "unit": "ng/mL"}]}
